Results from patent US20250195521A1 (Revolution Medicines, Inc., priority 2020, published 2025).
Several values for one entry are separate records, joined by “and”; a condition that tells them apart may be missing. Identical values can stand only once. Like-named read-outs stand apart in the source and are kept apart here.

What was measured:
[1] = system: K-Ras G12C (NCI-H358 cells); test: Potency assay: pERK in NCI-H358 cells; type: cell-based, human; settings: Homo sapiens; NCI-H358 cells, 4 hours; read-out: pERK EC50 (H358 KRAS G12C)
How it was run: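 Cells plated the day before were exposed for 4 h at 37° C, 5% CO2 to a 10-point, 3-fold DMSO dilution series (10 mM top stock), in duplicate. Phospho-ERK was read by AlphaLISA SureFire Ultra or by In-Cell Western with DRAQ5 DNA stain, and IC50 came from a 4-parameter sigmoidal fit.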

[2] = system: Capan-1 cells (K-Ras G12V); test: CellTiter-Glo cell viability, Capan-1; type: cell-based, human; settings: Homo sapiens, CAPAN-1, 120 h, K-Ras G12V, 5-day treatment; read-out: Capan-1 Cell Viability IC50
How it was run: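 Viability read by luminescence on day 5 after direct compound addition to cells, following ~30 min room-temperature equilibration. Values expressed as percent of mean DMSO signal, curves fitted with a four-parameter logistic model.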

[3] = system: NCI-H358 (K-Ras G12C); test: CellTiter-Glo cell viability assay, NCI-H358; type: cell-based, human; settings: 5-day treatment, read-out: H358 Cell Viability assay data (K-Ras G12C, IC50)
How it was run: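 Viability read-out was luminescent (CellTiter-Glo) on day 5 of compound exposure in K-Ras G12C NCI-H358 cells. Values were expressed as percent of mean DMSO signal and fitted with a four-parameter logistic curve.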

[4] = target: KRAS G12C (Homo sapiens (Human), UniProt P01116+P62937, G12C); test: Ras-Raf disruption/FRET/MOA assay (BRAF RBD, Cyclophilin A); type: biochemical; settings: read-out: KRAS G12C FRET IC50
How it was run: (§1)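 His6-K-Ras-GMPPNP (12.5 nM), GST-BRAF RBD (50 nM) and tagless Cyclophilin A (25 μM) were combined in 25 mM HEPES pH 7.3 with 100 mM NaCl, 5 mM MgCl2, 0.1% BSA and 0.002% Tween20, with compound as a 10-point 3-fold series from 30 μM final, then incubated 3 h at 25° C.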

[5] = target: K-Ras G12C(GMP-PNP) binding to BRAF RBD (Homo sapiens (Human), UniProt P01116+P62937, G12C); test: Disruption of BRAF RBD interaction with K-Ras (FRET / MOA assay), K-Ras G12C; type: biochemical
Source text: Note—The following protocol describes a procedure for monitoring disruption of K-Ras G12C(GMP-PNP) binding to BRAF^RBD by a compound of the invention. This protocol may also be executed substituting other Ras proteins or nucleotides.
The purpose of this biochemical assay was to measure the ability of test compounds to facilitate ternary complex formation between a nucleotide-loaded K-Ras isoform and Cyclophilin A; the resulting ternary complex disrupts binding to a BRAF^RBD construct, inhibiting K-Ras signaling through a RAF effector. Data is reported as IC50 values.
Compound was present in plate wells as a 10-point 3-fold dilution series starting at a final concentration of 30 μM. After incubation at 25° C. for 3 hours, a mixture of Anti-His Eu—W1024 and anti-GST allophycocyanin was then added to assay sample wells at final concentrations of 10 nM and 50 nM, respectively, and the reaction incubated for an additional 1.5 hours. […] Compounds that facilitate disruption of a K-Ras: RAF complex were identified as those eliciting a decrease in the TR-FRET ratio relative to DMSO control wells.

[6] = target: KRAS WT (Homo sapiens (Human), UniProt P01116+P62937); test: Ras-Raf disruption/FRET/MOA assay (BRAF RBD, Cyclophilin A); type: biochemical; settings: read-out: KRAS WT FRET data IC50
How it was run: as §1

[7] = target: KRAS G12D (Homo sapiens (Human), UniProt P01116+P62937, G12D); test: as above; type: biochemical; settings: read-out: KRAS G12D FRET IC50
How it was run: as §1

[8] = target: KRAS G13D (Homo sapiens (Human), UniProt P01116+P62937, G13D); test: as above; type: biochemical; settings: read-out: KRAS G13D FRET data IC50
How it was run: as §1

[9] = target: KRAS G13C (Homo sapiens (Human), UniProt P01116+P62937, G13C); test: as above; type: biochemical; settings: read-out: KRAS G13C FRET IC50
How it was run: as §1

[10] = target: NRAS G12C (Homo sapiens (Human), UniProt P01111+P62937, G12C); test: as above; type: biochemical; settings: read-out: NRAS G12C FRET data IC50
How it was run: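 TR-FRET read after 1.5 h with 10 nM anti-His Eu-W1024 and 50 nM anti-GST APC, following 3 h at 25 °C of GMPPNP-loaded His6-Ras (12.5 nM), GST-BRAF RBD (50 nM) and Cyclophilin A (25 μM) with compound from 30 μM final, 10 points, 3-fold. IC50 reported; pH 7.3 HEPES, 100 mM NaCl.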

[11] = target: KRAS G12S (Homo sapiens (Human), UniProt P01116+P62937, G12S); test: as above; type: biochemical; settings: read-out: KRAS G12S FRET IC50
How it was run: as §1

[12] = target: KRAS G12V (Homo sapiens (Human), UniProt P01116+P62937, G12V); test: as above; type: biochemical; settings: read-out: KRAS G12V FRET IC50
How it was run: as §1

Chain of K-Ras G12C(GMP-PNP) binding to BRAF RBD (P01116 other isoform, or with tags, fused parts or gaps G12C): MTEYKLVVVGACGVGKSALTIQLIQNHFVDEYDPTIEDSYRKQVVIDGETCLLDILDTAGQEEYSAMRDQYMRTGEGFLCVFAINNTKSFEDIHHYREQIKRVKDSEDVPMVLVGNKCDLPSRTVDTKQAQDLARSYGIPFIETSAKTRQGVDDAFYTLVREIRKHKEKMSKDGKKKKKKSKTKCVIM
Chain of K-Ras G12C(GMP-PNP) binding to BRAF RBD (P62937 whole entry): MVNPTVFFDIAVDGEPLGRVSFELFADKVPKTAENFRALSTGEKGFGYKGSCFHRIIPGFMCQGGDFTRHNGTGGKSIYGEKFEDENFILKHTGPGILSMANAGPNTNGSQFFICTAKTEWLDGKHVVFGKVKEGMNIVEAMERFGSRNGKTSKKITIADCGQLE
Chain of KRAS G13D (P01116 other isoform, or with tags, fused parts or gaps G13D): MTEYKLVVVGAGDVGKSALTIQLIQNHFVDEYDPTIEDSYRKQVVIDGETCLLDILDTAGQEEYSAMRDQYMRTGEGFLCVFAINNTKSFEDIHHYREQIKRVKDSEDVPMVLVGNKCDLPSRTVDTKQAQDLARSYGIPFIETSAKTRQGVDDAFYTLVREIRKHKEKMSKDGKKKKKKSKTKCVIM
Chain of KRAS G13D (P62937 whole entry): as the sequence (P62937 whole entry) above
Chain of NRAS G12C (P01111 whole entry G12C): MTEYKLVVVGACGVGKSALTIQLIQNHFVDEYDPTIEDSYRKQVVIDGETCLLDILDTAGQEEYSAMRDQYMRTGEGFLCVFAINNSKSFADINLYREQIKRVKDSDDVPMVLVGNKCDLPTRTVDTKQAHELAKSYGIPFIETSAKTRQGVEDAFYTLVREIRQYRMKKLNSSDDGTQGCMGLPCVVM
Chain of NRAS G12C (P62937 whole entry): as the sequence (P62937 whole entry) above
Chain of KRAS G12S (P01116 other isoform, or with tags, fused parts or gaps G12S): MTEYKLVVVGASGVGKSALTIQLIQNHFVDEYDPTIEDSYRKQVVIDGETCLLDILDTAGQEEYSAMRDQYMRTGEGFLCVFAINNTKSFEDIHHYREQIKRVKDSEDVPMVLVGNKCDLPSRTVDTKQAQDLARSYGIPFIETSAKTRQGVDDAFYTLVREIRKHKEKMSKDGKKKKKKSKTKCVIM
Chain of KRAS G12S (P62937 whole entry): as the sequence (P62937 whole entry) above
Chain of KRAS G13C (P01116 other isoform, or with tags, fused parts or gaps G13C): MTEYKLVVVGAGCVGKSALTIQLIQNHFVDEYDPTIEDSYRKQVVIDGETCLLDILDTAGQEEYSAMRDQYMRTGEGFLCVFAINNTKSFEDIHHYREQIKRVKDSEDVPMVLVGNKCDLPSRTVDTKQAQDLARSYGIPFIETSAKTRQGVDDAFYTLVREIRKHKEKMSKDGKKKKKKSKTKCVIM
Chain of KRAS G13C (P62937 whole entry): as the sequence (P62937 whole entry) above
Chain of KRAS G12C (P01116-2 other isoform, or with tags, fused parts or gaps G12C): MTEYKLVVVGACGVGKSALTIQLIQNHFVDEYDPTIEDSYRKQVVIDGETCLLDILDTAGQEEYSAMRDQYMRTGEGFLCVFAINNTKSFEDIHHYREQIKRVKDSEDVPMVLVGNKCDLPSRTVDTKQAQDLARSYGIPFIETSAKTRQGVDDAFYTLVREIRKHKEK
Chain of KRAS G12C (P62937 whole entry): as the sequence (P62937 whole entry) above
Chain of KRAS WT (P01116 other isoform, or with tags, fused parts or gaps): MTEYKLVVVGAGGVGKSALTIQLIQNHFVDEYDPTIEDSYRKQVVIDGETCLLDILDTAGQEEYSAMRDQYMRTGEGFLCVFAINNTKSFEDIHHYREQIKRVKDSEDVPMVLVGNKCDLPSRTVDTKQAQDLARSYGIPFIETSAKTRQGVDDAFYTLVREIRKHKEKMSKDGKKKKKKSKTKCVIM
Chain of KRAS WT (P62937 whole entry): as the sequence (P62937 whole entry) above
Chain of KRAS G12D (P01116 other isoform, or with tags, fused parts or gaps G12D): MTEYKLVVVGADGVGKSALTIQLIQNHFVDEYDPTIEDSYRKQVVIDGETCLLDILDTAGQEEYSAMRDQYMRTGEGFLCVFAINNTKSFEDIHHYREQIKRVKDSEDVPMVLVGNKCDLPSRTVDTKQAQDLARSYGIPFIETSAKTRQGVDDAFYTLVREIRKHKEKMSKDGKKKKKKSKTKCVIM
Chain of KRAS G12D (P62937 whole entry): as the sequence (P62937 whole entry) above
Chain of KRAS G12V (P01116 other isoform, or with tags, fused parts or gaps G12V): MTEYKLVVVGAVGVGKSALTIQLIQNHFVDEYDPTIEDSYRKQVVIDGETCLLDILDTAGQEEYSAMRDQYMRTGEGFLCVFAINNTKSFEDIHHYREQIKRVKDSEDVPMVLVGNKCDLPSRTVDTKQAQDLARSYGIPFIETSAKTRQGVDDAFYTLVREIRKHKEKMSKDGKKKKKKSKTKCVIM
Chain of KRAS G12V (P62937 whole entry): as the sequence (P62937 whole entry) above

SMILES | EC50 [1] [nM] | IC50 [2] [nM] | IC50 ([3]; Homo sapiens, NCI-H358, 120 h) [nM] | IC50 [4] [nM] | IC50 ([5]; read-out: KRAS G12C FRET IC50) | IC50 [3] [nM] | IC50 [6] [nM] | IC50 [7] [nM] | IC50 [8] [nM] | IC50 [9] [nM] | IC50 [10] [nM] | IC50 [11] [nM] | IC50 [12] [nM] | IC50 ([5]; KRAS G12C FRET IC50)
CCn1c(-c2cccnc2[C@H](C)OC)c2c3cc(ccc31)-c1cc(O)cc(c1)C[C@H](NC(=O)[C@H](C(C)C)N(C)C(=O)[C@@H]1CNC[C@@H]1C)C(=O)N1CCC[C@H](N1)C(=O)OCC(C)(C)C2 [Compound A128] | < 5000 | > 10000 | < 10 | 10 to 100 | 10 to 100 nM |  |  |  |  |  |  |  |  | 
CCn1c(-c2cccnc2[C@H](C)OC)c2c3cc(ccc31)-c1cc(O)cc(c1)C[C@H](NC(=O)[C@H](C(C)C)N(C)C(=O)[C@H]1CCN(C(=O)[C@@]3(C)CCCN3)C1)C(=O)N1CCC[C@H](N1)C(=O)OCC(C)(C)C2 [Compound A135] |  | 1000 to 10000 | < 10 |  | < 10 nM | 10 to 100 |  |  |  |  |  |  |  | 
CCn1c(-c2cccnc2[C@H](C)OC)c2c3cc(ccc31)-c1cc(O)cc(c1)C[C@H](NC(=O)[C@H](C(C)C)N(C)C(=O)C1(CN)CC1)C(=O)N1CCC[C@H](N1)C(=O)OCC(C)(C)C2 [Compound A139] |  |  | 100 to 1000 | 10 to 100 | 10 to 100 nM |  | 10 to 100 | 10 to 100 | 10 to 100 | 10 to 100 |  |  |  | 
CCn1c(-c2cccnc2[C@H](C)OC)c2c3cc(ccc31)-c1csc(n1)C[C@H](NC(=O)[C@H](C(C)C)N1CCCC1=O)C(=O)N1CCC[C@H](N1)C(=O)OCC(C)(C)C2 [Compound A212] |  | > 10000 |  | 1000 to 10000 | 100 to 1000 nM and 1000 to 10000 nM |  | > 10000 | > 10000 | > 10000 | 1000 to 10000 | 1000 to 10000 | > 10000 |  | 
CCn1c(-c2cnccc2COC)c2c3cc(ccc31)-c1cc(O)cc(c1)C[C@H](NC(=O)[C@H](C(C)C)N(C)C(=O)[C@H]1CN(C(C)=O)C[C@H]1C(F)(F)F)C(=O)N1CCC[C@H](N1)C(=O)OCC(C)(C)C2 [Compound A215] |  | > 10000 |  | 100 to 1000 | 100 to 1000 nM and > 10000 nM |  | 100 to 1000 | 1000 to 10000 | 100 to 1000 | 10 to 100 | 100 to 1000 | 100 to 1000 | 100 to 1000 | 
CCn1c(-c2cccnc2[C@H](C)OC)c2c3cc(ccc31)-c1csc(n1)C[C@H](NC(=O)[C@H](C(C)C)N1CCC3(CCN(S(C)(=O)=O)C3)C1=O)C(=O)N1CCC[C@H](N1)C(=O)OCC(C)(C)C2 (stereo partly drawn) [Compound A220] |  |  | > 10000 | 1000 to 10000 |  |  | 1000 to 10000 | > 10000 | > 10000 | 1000 to 10000 | 1000 to 10000 | 1000 to 10000 | 1000 to 10000 | 100 to 1000 nM and 1000 to 10000 nM
CCn1c(-c2cccnc2[C@H](C)OC)c2c3cc(ccc31)-c1csc(n1)C[C@H](NC(=O)[C@H](C(C)C)N(C)C(=O)N1CCN(C(=O)CN(C)C)CC1)C(=O)N1CCC[C@H](N1)C(=O)OCC(C)(C)C2 [Compound A290] | < 5000 |  | < 10 |  | < 10 nM |  |  |  |  |  |  |  |  | 
